Reference: patent US10215755B2, “Method of diagnosing and treating Epstein Barr virus-based myalgic encephalomyelitis chronic fatigue syndrome patients” (CFS, LLC, priority 2012, dated 2019)

Legend:
group A ME/CFS patients = experiment: Follow-up of 106 group A ME/CFS patients 2001-2007 under subset directed antiviral treatment; type: in vivo, human; settings: 79 of 106 group A patients, valacyclovir (EBV subset) or valganciclovir (HCMV, HHV6 subsets), 2001-2007, p<0.0001
Source text: A ME/CFS diagnostic panel was created utilizing initial Fukuda/Carruthers criteria and a systematic review of 142 ME/CFS patients. Two groups of ME/CFS patients were found. Group A patients had elevated serum IgG antibody titers to the herpes viruses Epstein-Barr virus (EBV), cytomegalovirus (HCMV) and Human Herpes virus 6 (HHV6) in single or multiple virus infection, but no other co-infections. Group B patients had similar elevated herpes virus antibody titers, plus serologic evidence of co-infections, tick-borne (“Borrelia burgdorferi”, “Anaplasma phagocytophilia”, “Babesia microti”); “Mycoplasma pneumoniae”; or adult rheumatoid fever. One hundred and six group A ME/CFS patients were followed from 2001-2007, and treated with subset directed valacyclovir EBV subset or valganciclovir (HCMV, HHV6 subsets). The data included over 7000 patient visits and 35,000 data entries.

[1] = system: early herpes virus proteins; settings: cited from earlier work
[2] = system: EBV subset ME/CFS patients; experiment: Energy Index Point Score (EIPS) of six EBV subset ME/CFS patients treated with valacyclovir for ≥12 months; type: in vivo, human; settings: for EIPS final: valacyclovir ≥12 months
Method: As depicted in Table 1, the Energy Index (EI) point score (Copyright, Lerner A M and Deeter R G, 1999), is a simple and reliable metric that can be used to easily evaluate the functional capacity of the CFS patient at each patient-physician visit. The EI is measured on a scale of 1-10. Validation of the EI was done using two methods: 1.) 20 CFS patients and 22 healthy adults, matched for sex, age, place, and time; EI, CFS=3.6; EI, healthy adults=9.9, p=<0.0001; and 2.) 55 CFS patients evaluated at the same time by the EI and fatigue severity score, correlation 0.67, p=0.0066. Improvement to disappearance of CFS symptoms correlates with an increasing EI.
The validated energy index point score generally can be calculated for each CFS patient every 3 months at physician visits. A CFS patient has an EI≤5. A CFS patient with an […] is bedridden; a CFS diagnosis is no longer present at an EI>5. The EI effect size is 0.25, a medium effect size is 0.5. A large effect size is >0.8.
6 ME/CFS patients were identified as Group A EBV subset (five patients), and one patient (group B) had co-infection with Borrelia burgdorferi. […] A ME/CFS treatment decision tree that developed from the systematic review of the 142 ME/CFS patients is provided as FIG. 1.
Demographics. ME/CFS patients (Table 2) the six ME/CFS patients (5 women) were selected from 142 ME/CFS of the 2001-2007 systematic review. They were 37-59 years old. Serum samples were taken at intervals Mar. 5, 2002-Nov. 14, 2003. There were 7 to 10 sera from each patient. Five of the 6 ME/CFS patients were Group A (no co-infections), and one patient had co-infection with Borrelia burgdorferi (patient no. 2). Five of the 6 patients were HCMV IgG serum antibody negative. Initial EIPS values were 3.5-5.0, meaning that patients could be out of bed only 3 to 4 hours a day, and required daily naps in bed to complete each day. One ME/CFS patient was able to struggle to complete a sedentary working day (Table 2, patient no. 6). […] They struggled at baseline to maintain their sedentary working day, required a daytime nap, and could no longer do any exercise without marked syncope and worsening fatigue. One year later the final EIPS values were 7-8, for the 5 group A ME/CFS patients, meaning that patients could now live normal lives. The single group B ME/CFS patient's final EIPS value increased from a baseline of 3.5 to 5, but this […] still met international criteria diagnosis of ME/CFS. The EIPS is a validated (FSS-9 item scale with high degree of internal consistency measured by Cronbach's alpha) is a Functional Activity Appraisal: energy Index Score Healthcare worker Appraisal.

EBV thymidine kinase = EBV thymidine kinase (Epstein-Barr virus, UniProt P03177); settings: after gastrointestinal absorption; cited from earlier work
HV6 DNA polymerases = HV6 DNA polymerases (Human herpesvirus 6A, UniProt P28857); settings: cited from earlier work
HCMV DNA polymerases = HCMV DNA polymerases (Human cytomegalovirus, UniProt P08546); settings: cited from earlier work
Sequence of HCMV DNA polymerases (P08546 whole entry): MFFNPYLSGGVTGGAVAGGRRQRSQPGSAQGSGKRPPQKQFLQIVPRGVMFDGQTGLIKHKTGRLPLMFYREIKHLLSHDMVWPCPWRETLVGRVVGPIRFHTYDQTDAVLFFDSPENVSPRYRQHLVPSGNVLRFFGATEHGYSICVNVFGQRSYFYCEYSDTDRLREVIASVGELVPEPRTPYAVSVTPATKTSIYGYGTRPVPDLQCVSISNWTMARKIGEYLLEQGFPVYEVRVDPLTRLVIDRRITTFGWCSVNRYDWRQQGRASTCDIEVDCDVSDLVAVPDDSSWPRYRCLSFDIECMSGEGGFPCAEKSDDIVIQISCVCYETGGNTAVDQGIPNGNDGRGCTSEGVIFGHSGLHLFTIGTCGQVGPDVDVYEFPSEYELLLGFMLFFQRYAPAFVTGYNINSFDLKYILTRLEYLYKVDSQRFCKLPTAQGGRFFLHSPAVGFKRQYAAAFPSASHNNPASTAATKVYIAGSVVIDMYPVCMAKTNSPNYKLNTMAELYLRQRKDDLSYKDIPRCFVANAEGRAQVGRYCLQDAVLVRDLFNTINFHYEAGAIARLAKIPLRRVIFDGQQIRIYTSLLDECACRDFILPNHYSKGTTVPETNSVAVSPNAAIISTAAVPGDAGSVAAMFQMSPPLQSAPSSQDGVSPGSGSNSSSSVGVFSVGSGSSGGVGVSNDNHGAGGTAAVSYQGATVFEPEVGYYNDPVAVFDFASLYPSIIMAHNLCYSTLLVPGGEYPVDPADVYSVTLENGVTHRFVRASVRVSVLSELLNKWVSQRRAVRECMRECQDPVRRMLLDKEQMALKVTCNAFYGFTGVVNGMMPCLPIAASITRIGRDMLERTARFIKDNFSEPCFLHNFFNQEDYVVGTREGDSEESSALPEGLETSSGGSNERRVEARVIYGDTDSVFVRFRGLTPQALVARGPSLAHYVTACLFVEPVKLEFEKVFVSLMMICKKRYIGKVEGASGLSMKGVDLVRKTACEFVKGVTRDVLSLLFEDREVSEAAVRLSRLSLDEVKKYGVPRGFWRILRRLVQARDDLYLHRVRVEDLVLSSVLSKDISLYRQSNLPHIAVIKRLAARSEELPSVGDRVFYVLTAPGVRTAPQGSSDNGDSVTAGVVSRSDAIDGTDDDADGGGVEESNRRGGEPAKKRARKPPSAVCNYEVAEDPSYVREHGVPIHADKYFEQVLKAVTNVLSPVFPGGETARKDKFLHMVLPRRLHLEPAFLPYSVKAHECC

Sequence of HV6 DNA polymerases (P28857 whole entry): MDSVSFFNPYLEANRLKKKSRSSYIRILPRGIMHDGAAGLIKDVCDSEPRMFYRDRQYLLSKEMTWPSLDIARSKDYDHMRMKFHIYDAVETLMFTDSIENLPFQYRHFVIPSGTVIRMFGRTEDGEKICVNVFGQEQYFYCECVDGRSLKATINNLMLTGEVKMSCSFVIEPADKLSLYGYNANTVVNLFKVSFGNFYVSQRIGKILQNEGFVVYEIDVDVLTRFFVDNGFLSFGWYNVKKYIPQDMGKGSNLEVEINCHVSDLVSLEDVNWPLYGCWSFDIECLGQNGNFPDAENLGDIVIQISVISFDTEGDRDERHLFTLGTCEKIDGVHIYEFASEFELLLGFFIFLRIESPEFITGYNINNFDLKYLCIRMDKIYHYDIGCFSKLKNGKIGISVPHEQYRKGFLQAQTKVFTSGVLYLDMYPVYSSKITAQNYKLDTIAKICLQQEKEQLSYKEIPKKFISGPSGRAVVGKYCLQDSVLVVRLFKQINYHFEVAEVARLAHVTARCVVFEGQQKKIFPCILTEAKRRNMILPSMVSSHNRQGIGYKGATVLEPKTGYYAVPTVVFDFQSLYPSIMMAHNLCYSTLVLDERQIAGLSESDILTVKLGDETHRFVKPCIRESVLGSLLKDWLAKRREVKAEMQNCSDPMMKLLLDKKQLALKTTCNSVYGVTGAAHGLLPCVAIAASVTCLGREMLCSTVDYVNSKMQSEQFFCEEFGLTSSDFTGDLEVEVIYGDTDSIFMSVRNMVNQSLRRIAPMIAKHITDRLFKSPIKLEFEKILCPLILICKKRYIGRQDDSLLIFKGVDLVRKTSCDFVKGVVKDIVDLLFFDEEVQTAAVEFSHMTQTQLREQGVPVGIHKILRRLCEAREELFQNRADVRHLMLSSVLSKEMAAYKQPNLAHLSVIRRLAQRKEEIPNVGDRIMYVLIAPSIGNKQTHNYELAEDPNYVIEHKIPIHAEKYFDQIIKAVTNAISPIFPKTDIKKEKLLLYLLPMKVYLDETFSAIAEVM
Sequence of EBV thymidine kinase (P03177 whole entry): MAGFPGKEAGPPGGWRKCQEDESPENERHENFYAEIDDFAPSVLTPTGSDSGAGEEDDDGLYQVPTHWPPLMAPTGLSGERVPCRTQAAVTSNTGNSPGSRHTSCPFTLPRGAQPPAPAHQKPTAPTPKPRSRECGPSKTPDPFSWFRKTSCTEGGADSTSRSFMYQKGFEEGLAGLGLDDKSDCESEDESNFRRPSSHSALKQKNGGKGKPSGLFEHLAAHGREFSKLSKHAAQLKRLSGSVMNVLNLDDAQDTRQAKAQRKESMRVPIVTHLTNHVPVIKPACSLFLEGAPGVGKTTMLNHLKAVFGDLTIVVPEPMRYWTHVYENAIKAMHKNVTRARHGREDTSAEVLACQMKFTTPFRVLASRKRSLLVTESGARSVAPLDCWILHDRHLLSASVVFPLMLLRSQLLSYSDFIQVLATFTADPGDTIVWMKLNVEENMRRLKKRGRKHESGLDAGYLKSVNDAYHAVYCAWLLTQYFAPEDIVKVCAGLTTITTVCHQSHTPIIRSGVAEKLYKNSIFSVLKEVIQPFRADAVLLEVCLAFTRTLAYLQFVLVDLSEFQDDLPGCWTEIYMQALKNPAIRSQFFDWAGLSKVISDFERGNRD

Row | Compound | group A patients recovered to resume normal life (group A ME/CFS patients) [%] | inhibition of early herpes virus proteins [1] | EIPS final ([2]; patient 1, Group A, no co-infection, EIPS 5 baseline) | EIPS final ([2]; patient 2, Group B, co-infection Lyme disease, EIPS 3.5 baseline) | EIPS final ([2]; patient 3, Group A, no co-infection, EIPS 5 baseline) | EIPS final ([2]; patient 4, Group A, no co-infection, EIPS 4 baseline) | EIPS final ([2]; patient 6, Group A, no co-infections, EIPS 6 baseline) | final EIPS value ([2]; single group B ME/CFS patient, baseline 3.5, still met criteria of ME/CFS) | final EIPS values ([2]; the 5 group A ME/CFS patients, one year later, initial EIPS 3.5-5.0 (one patient 6)) | greater affinity for EBV thymidine kinase than for the host cellular enzyme (EBV thymidine kinase) [×] | inhibition of HV6 DNA polymerases (HV6 DNA polymerases) | inhibition of HCMV DNA polymerases (HCMV DNA polymerases)
1 | CC(C)[C@H](N)C(=O)OCCOCn1cnc2c(=O)[nH]c(N)nc21 [valacyclovir] | 74.5 | do not inhibit | EIPS 8 | EIPS 5 | EIPS 8 | EIPS 7 | EIPS 7 | 5 | 7-8 | 200 | – | –
2 | CC(C)[C@H](N)C(=O)OCC(CO)OCn1cnc2c(=O)nc(N)[nH]c21 (some centres unmarked) [valganciclovir] | 74.5 | do not inhibit | – | – | – | – | – | – | – | – | inhibits | inhibits
